Converted amounts (≈) assume the structure as drawn. Read-outs that look alike come from different tables or passages of the source.
Experiments:
HiBiT tagged Wee1 = HiBiT tagged Wee1 (Homo sapiens, UniProt P30291); experiment: Wee1 protein degradation assay (HiBiT assay); type: cell-based; conditions: engineered HT-1080 cells, 20 hours; for Dmax: maximum percentage of Wee1 degradation, read-out: HiBiT Wee1: Dmax
NCI-H1048 cells = experiment: NCI-H1048 cell proliferation assay (CTG assay); type: cell-based; conditions: Homo sapiens, 120 hours, read-out: CTG cellular assay_H1048: IC50
In short: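 NCI-H1048 small cell lung cancer cells (RPMI-1640, 10% FBS) were exposed to 10-point half-log compound dilutions from 10 μM to 0.316 nM for 120 h at 37° C., 5% CO2. Viability was read by CellTiter-Glo luminescence and normalized to DMSO as percent of control. EC50 and DC50 were fitted with a four-parameter logistic model.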

[1] = Determination of kinetic solubility; type: physicochemical; conditions: PBS, aqueous buffer, kinetic from dmso stock, shaking at 25° C. for 2 hours
Method: An aliquot of 30 μL stock solution (10 mM) was placed in order into their proper 96-well rack. 970 μL of PBS was added into each vial of the cap-less solubility sample plate. The assay was performed in duplicate. In each vial, a stir stick was added and sealed with a molded PTFE/Silicone plug. […] Plugs were removed after 2 hours and the stir sticks were removed using a big magnet. Then the samples were transferred from the solubility sample plate into the filter plate. All the samples were filtered using the vacuum manifold. An aliquot of 5 μL filtrate was mixed with 5 μL DMSO and 490 μL of a mixture of H2O and acetonitrile (v:v, 1:1) containing internal standard. A certain proportion of ultrapure water was used to dilute according to the peak shape. The dilution factor was changed according to the solubility values and the LC-MS/MS signals.
An aliquot of 6 μL stock solution (10 mM in DMSO) was transferred from standard (STD) stock plate into a new plate, and then 194 μL of DMSO was added to get a STD working solution of 300 μM. Then 5 μL of 300 μM working solution was mixed with 5 μL of DMSO and 490 μL of a mixture of H2O and acetonitrile (v:v, 1:1) containing internal standard and the final STD concentration was 3 μM. The STD concentration were changed according to the LC-MS/MS signals.
The sample plate was put into the autosampler and the test compound concentration was determined by LC-MS/MS.

[2] = Pharmacokinetic study in mice (IV and PO); type: in vivo; conditions: male CD1 mice; for F: PO (10 mg/kg) vs IV (2 mg/kg); for AUC(0-inf) / clearance / half-life / Cmax: mouse, plasma; for half-life: read-out: T½ (converted)
Method: Objective: the objective of this study was to determine the pharmacokinetics of test compound following intravenous (IV) and oral (PO) administration to male CD1 mice.
Materials: Male CD1 mouse (20-30 g, 6-8 weeks, Zhejiang Vital River Laboratory Animal Technology Co., Ltd.).
The CD1 mice were administered with the test article intravenously via tail vein at 2 mg/kg or orally at 10 mg/kg. The animals had free access to food and water. After dose administration, blood was collected from the dorsal metatarsal vein at 5 min (0.0833 h, IV only), 15 min (0.25 h), 30 min (0.5 h), 60 min (1 h), 2 h, 4 h, 6 h, 8 h and 24 h. Blood samples were placed in an anticoagulant tube with EDTA-K2, mixed adequately and centrifuged at 4° C., 4000 g for 5 minutes to get the plasma. The plasma samples were stored at −75±15° C. until analyzed by LC-MS/MS. The PK parameters were calculated using non-compartmental model by Phoenix WinNonlin 6.1 (Linear/log trapezoidal).

[3] = Permeability study in MDCKII cells (bidirectional A to B and B to A); type: in vitro ADME, Canine; conditions: dog, MDCK; for efflux ratio at 120 min, 1 μM: pH 7.4; for Papp A→B at 120 min, 1 μM / Papp B→A at 120 min, 1 μM: pH 7.4, 120 minutes; for Papp A→B at 120 min, 1 μM: apical to basolateral; for Papp B→A at 120 min, 1 μM: basolateral to apical
Method: MDCKII (Madin-Darby Canine Kidney cell line, wild type) cell was obtained from the Netherlands Cancer Institute, which was used for P-gp substrates or inhibitors screening and predicting the permeability of compounds with high efflux barriers such as duodenum, blood-brain barrier, hepatocyte nucleus and renal unit. The MDCKII cells with 10 to 22 passages were used for the permeability investigation.
MDCKII cells were cultured using Minimum Essential Media (MEM) at 37° C., 5% CO2 and 95% relative humidity. The cells were seeded in Transwell plate with 5.45×10^5 cells/cm^2. Then the cells were incubated in CO2 Incubator for 4-7 days for transport studies.
The complete medium was prepared by adding 10% FBS (fetal bovine serum) and 1% glutamax-1 to 500 ml MEM.
The dose concentrations of test compounds and control compounds were 1 μM. The bidirectional (A to B and B to A) permeability was evaluated. All incubations are performed in duplicate.
The regents were pre-incubated at 37±1° C. for 30 minutes. To determine the transport rate from apical to basolateral direction, 125 μL working solution (1 μM) was added to the Transwell insert (apical compartment), and 50 μL sample was immediately transferred from the apical compartment to a new 96-well plate as the initial donor sample (A-B) and mixed with 200 μL of acetonitrile or methanol containing IS. And 235 μL HBSS (10 mM HEPES, pH 7.4) was added to the receiver plate (basolateral compartment). To determine the transport rate from basolateral to apical direction, 285 μL working solution (1 μM) was added to the receiver plate (basolateral compartment), and 50 μL sample was immediately transferred from the basolateral compartment to a new 96-well plate as the initial donor sample (B-A) and mixed with 200 μL of acetonitrile or methanol containing IS. And 75 μL HBSS (10 mM HEPES, pH 7.4) was added to the Transwell insert (apical compartment). Then the plate was incubated at […] with 5% CO2 and 95% relative humidity for 120 minutes.
At the end of incubation, 50 μL samples from donor and receiver sides were transferred into a new 96-well plate. 200 μL of ice-cold acetonitrile or methanol containing appropriate internal standards (IS) was mixed with the samples. After vortex for 10 minutes, the samples are centrifuged at 3220 g for 40 minutes. An aliquot of 100 μL of the supernatant was mixed with appropriate volume of ultra-pure water and was analyzed by LC-MS/MS. All incubations are performed in duplicate.
The integrity of MDCKII cells were checked by Lucifer Yellow Rejection Assay after transport assay. The plate(s) were incubated with Lucifer Yellow solution at 37° C. for 30 minutes. The Lucifer Yellow fluorescence (to monitor monolayer integrity) was measured in a fluorescence plate reader at 480 nm excitation and 530 nm emission.
Test and reference compounds (metoprolol and digoxin) were semi-quantitatively analyzed, and the peak area ratio of the analyte and the internal standard was used to evaluate the concentration of the compounds.

[4] = pH 3.0, read-out: Kinetic solubility (μM) pH 3.0
[5] = pH 5.0, read-out: Kinetic solubility (μM) pH 5.0

Chain of HiBiT tagged Wee1 (P30291 whole entry): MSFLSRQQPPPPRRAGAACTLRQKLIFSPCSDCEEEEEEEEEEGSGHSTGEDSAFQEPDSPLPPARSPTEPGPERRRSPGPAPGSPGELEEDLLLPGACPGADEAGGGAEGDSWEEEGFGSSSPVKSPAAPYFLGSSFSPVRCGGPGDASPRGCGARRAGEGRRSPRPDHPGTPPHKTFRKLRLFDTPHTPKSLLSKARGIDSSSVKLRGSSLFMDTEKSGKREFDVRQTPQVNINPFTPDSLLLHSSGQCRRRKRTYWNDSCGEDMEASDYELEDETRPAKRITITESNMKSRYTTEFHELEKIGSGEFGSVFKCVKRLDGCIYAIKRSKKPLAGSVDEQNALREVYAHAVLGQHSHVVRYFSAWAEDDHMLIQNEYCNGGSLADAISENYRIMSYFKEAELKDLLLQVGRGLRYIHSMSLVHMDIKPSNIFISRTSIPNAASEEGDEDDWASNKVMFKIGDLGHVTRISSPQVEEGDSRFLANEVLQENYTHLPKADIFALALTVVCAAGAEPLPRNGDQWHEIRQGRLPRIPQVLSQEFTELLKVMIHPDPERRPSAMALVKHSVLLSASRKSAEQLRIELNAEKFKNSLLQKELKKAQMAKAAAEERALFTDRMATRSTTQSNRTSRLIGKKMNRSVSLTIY

C=CCn1c(=O)c2cnc(Nc3ccc(N4CCC(CN(C)C5CCN(c6cccc7c6n(C)c(=O)n7C6CCC(=O)NC6=O)CC5)CC4)cc3)nc2n1-c1cccc(C(C)(C)O)n1 (stereo not shown) [Compound 61]
DC50 (HiBiT tagged Wee1): < 0.1 µM
Dmax (HiBiT tagged Wee1): 50 to 75%
IC50 (NCI-H1048 cells): ≤ 0.025 µM
solubility kinetic at 2 h [1, 4]: 299 µM (≈ 260 µg/mL)
solubility kinetic at 2 h [1, 5]: 203 µM (≈ 176 µg/mL)

C=CCn1c(=O)c2cnc(Nc3ccc(N4CCC(CN5CCC(c6ccc(NC7CCC(=O)NC7=O)cc6)CC5)CC4)cc3)nc2n1-c1cccc(C(C)(C)O)n1 (stereo not shown) [Compound 72]
DC50 (HiBiT tagged Wee1): < 0.1 µM
Dmax (HiBiT tagged Wee1): > 75%
IC50 (NCI-H1048 cells): ≤ 0.025 µM
F [2]: 80.2%
AUC(0-inf) ([2]; IV (2 mg/kg)): 1130 ng·h/mL
clearance ([2]; IV (2 mg/kg)): 29.5 mL/min/kg
half-life ([2]; IV (2 mg/kg)): 2.81 h
AUC(0-inf) ([2]; PO (10 mg/kg)): 4530 ng·h/mL
Cmax ([2]; PO (10 mg/kg)): 550 ng/mL
half-life ([2]; PO (10 mg/kg)): 2.85 h

C=CCn1c(=O)c2cnc(Nc3ccc(N4CCN(CC5CCN(c6cccc7c6n(C)c(=O)n7C6CCC(=O)NC6=O)CC5)CC4)cc3)nc2n1-c1cccc(C(C)(C)O)n1 (stereo not shown) [Compound 65]
DC50 (HiBiT tagged Wee1): < 0.1 µM
Dmax (HiBiT tagged Wee1): 50 to 75%
IC50 (NCI-H1048 cells): ≤ 0.025 µM
efflux ratio at 120 min, 1 μM [3]: 0.94
Papp A→B at 120 min, 1 μM [3]: 1.35 ×10⁻⁶ cm/s
Papp B→A at 120 min, 1 μM [3]: 1.27 ×10⁻⁶ cm/s

C=CCn1c(=O)c2cnc(Nc3ccc(N4CCC(CN5CCN(c6ccc(NC7CCC(=O)NC7=O)cc6F)CC5)CC4)cc3)nc2n1-c1cccc(C(C)(C)O)n1 (stereo not shown) [Compound 71]
DC50 (HiBiT tagged Wee1): < 0.1 µM
Dmax (HiBiT tagged Wee1): > 75%
IC50 (NCI-H1048 cells): ≤ 0.025 µM
F [2]: 75.4%
AUC(0-inf) ([2]; IV (2 mg/kg)): 6730 ng·h/mL
clearance ([2]; IV (2 mg/kg)): 4.95 mL/min/kg
half-life ([2]; IV (2 mg/kg)): 2.79 h
AUC(0-inf) ([2]; PO (10 mg/kg)): 25400 ng·h/mL
Cmax ([2]; PO (10 mg/kg)): 2730 ng/mL
half-life ([2]; PO (10 mg/kg)): 3 h

C=CCn1c(=O)c2cnc(Nc3ccc(C4CCN(CC5CCN(c6cccc7c6n(C)c(=O)n7C6CCC(=O)NC6=O)CC5)CC4)cc3)nc2n1-c1cccc(C(C)(C)O)n1 (stereo not shown) [Compound 66]
DC50 (HiBiT tagged Wee1): < 0.1 µM
Dmax (HiBiT tagged Wee1): 50 to 75%
IC50 (NCI-H1048 cells): ≤ 0.025 µM
solubility kinetic at 2 h [1, 4]: 252 µM (≈ 212 µg/mL)
solubility kinetic at 2 h [1, 5]: 148 µM (≈ 124 µg/mL)
F [2]: 23.6%
AUC(0-inf) ([2]; IV (2 mg/kg)): 26700 ng·h/mL
clearance ([2]; IV (2 mg/kg)): 1.25 mL/min/kg
half-life ([2]; IV (2 mg/kg)): 7 h
AUC(0-inf) ([2]; PO (10 mg/kg)): 31600 ng·h/mL
Cmax ([2]; PO (10 mg/kg)): 1880 ng/mL
half-life ([2]; PO (10 mg/kg)): 7.2 h

C=CCn1c(=O)c2cnc(Nc3ccc(N4CCC(CN5CCC(c6cccc7c6n(C)c(=O)n7C6CCC(=O)NC6=O)CC5)CC4)cc3)nc2n1-c1cccc(C(C)(C)O)n1 (stereo not shown) [Compound 55]
DC50 (HiBiT tagged Wee1): < 0.1 µM
Dmax (HiBiT tagged Wee1): 50 to 75%
IC50 (NCI-H1048 cells): ≤ 0.025 µM
solubility kinetic at 2 h [1, 4]: 194 µM (≈ 163 µg/mL)
solubility kinetic at 2 h [1, 5]: 55.7 µM (≈ 46.8 µg/mL)
efflux ratio at 120 min, 1 μM [3]: 2.88
Papp A→B at 120 min, 1 μM [3]: 2.48 ×10⁻⁶ cm/s
Papp B→A at 120 min, 1 μM [3]: 7.09 ×10⁻⁶ cm/s
F [2]: 38.9%
AUC(0-inf) ([2]; IV (2 mg/kg)): 6980 ng·h/mL
clearance ([2]; IV (2 mg/kg)): 4.78 mL/min/kg
half-life ([2]; IV (2 mg/kg)): 5.7 h
AUC(0-inf) ([2]; PO (10 mg/kg)): 13600 ng·h/mL
Cmax ([2]; PO (10 mg/kg)): 902 ng/mL
half-life ([2]; PO (10 mg/kg)): 5.2 h

C=CCn1c(=O)c2cnc(Nc3ccc(N4CCN(CC5CCN(c6ncc(NC7CCC(=O)NC7=O)cc6F)CC5)[C@H](C)C4)cc3)nc2n1-c1ccc2c(n1)[C@@](O)(CC)CC2 (stereo partly shown) [Compound 193]
DC50 (HiBiT tagged Wee1): < 0.1 µM
Dmax (HiBiT tagged Wee1): > 75%
IC50 (NCI-H1048 cells): ≤ 0.025 µM

C=CCn1c(=O)c2cnc(Nc3ccc(N4CCC(CN5CCC(c6ccc7c(N8CCC(=O)NC8=O)nn(C)c7c6)CC5)CC4)cc3)nc2n1-c1cccc(C(C)(C)O)n1 [Compound 95]
DC50 (HiBiT tagged Wee1): < 0.1 µM
Dmax (HiBiT tagged Wee1): > 75%
IC50 (NCI-H1048 cells): ≤ 0.025 µM

C=CCn1c(=O)c2cnc(Nc3ccc(N4CCN(CC5CCN(c6ccc(NC7CCC(=O)NC7=O)cn6)CC5)CC4)cc3)nc2n1-c1cccc(C(C)(C)O)n1 (stereo not shown) [Compound 87]
DC50 (HiBiT tagged Wee1): < 0.1 µM
Dmax (HiBiT tagged Wee1): > 75%
IC50 (NCI-H1048 cells): ≤ 0.025 µM

C=CCn1c(=O)c2cnc(Nc3ccc(N4CC5(CCN(C6CN(c7ccc(NC8CCC(=O)NC8=O)cc7F)C6)CC5)C4)cc3)nc2n1-c1ccc2c(n1)[C@@](O)(CC)CC2 (stereo partly shown) [Compound 179]
DC50 (HiBiT tagged Wee1): < 0.1 µM
Dmax (HiBiT tagged Wee1): > 75%
IC50 (NCI-H1048 cells): ≤ 0.025 µM

C=CCn1c(=O)c2cnc(Nc3ccc(N4CCC(N5CC6(CN(c7ccc(NC8CCC(=O)NC8=O)cc7F)C6)C5)CC4)cc3)nc2n1-c1cccc(C(C)(C)O)n1 (stereo not shown) [Compound 123]
DC50 (HiBiT tagged Wee1): < 0.1 µM
Dmax (HiBiT tagged Wee1): > 75%
IC50 (NCI-H1048 cells): ≤ 0.025 µM

C=CCn1c(=O)c2cnc(Nc3ccc(N4CCN(CC5CCN(c6ccc(NC7CCC(=O)NC7=O)cc6F)CC5)CC4)nc3)nc2n1-c1ccc2c(n1)[C@@](O)(CC)CC2 (stereo partly shown) [Compound 187]
DC50 (HiBiT tagged Wee1): < 0.1 µM
Dmax (HiBiT tagged Wee1): > 75%
IC50 (NCI-H1048 cells): ≤ 0.025 µM

C=CCn1c(=O)c2cnc(Nc3ccc(N4CCN(CC5CCN(c6ccc(NC7CCC(=O)NC7=O)cc6F)CC5)[C@@H](C)C4)cc3)nc2n1-c1ccc2c(n1)[C@@](O)(CC)CC2 (stereo partly shown) [Compound 162]
DC50 (HiBiT tagged Wee1): < 0.1 µM
Dmax (HiBiT tagged Wee1): > 75%
IC50 (NCI-H1048 cells): ≤ 0.025 µM

— patent US20250049798A1, “WEE1 PROTEIN KINASE DEGRADATION AGENT AND USE THEREOF” (HANGZHOU GLUBIO PHARMACEUTICAL CO. LTD., priority 2021, published 2025)
